Experimental data: ChEMBL document CHEMBL3351874, “Rational design of inhibitors of the bacterial cell wall synthetic enzyme GlmU using virtual screening and lead-hopping” (Bioorg Med Chem, 2014)
pIC50: −log10 of the molar value. Active and inactive are the calls of the source. The rule behind the calls is not given here.

How the values were obtained:
[1] = target: Tyrosine-protein kinase JAK1 (Homo sapiens, UniProt P23458); test: Inhibition of human JAK1 incubated for 20 mins prior to MgCl2 addition measured after 90 mins by mobility shift assay
[2] = target: Interleukin-1 receptor-associated kinase 1 (Homo sapiens, UniProt P51617); test: Inhibition of human IRAK1 incubated for 20 mins prior to MgCl2 addition measured after 90 mins by mobility shift assay
[3] = target: Cyclin-dependent kinase 1 (Homo sapiens, UniProt P06493); test: Inhibition of human CDK1 incubated for 20 mins prior to MgCl2 addition measured after 90 mins by mobility shift assay
[4] = target: Tyrosine-protein kinase JAK2 (Homo sapiens, UniProt O60674); test: Inhibition of human JAK2 incubated for 20 mins prior to MgCl2 addition measured after 90 mins by mobility shift assay
[5] = target: T1, Interleukin-1 receptor-associated kinase 4 (Homo sapiens, UniProt Q9NWZ3); test: Inhibition of human IRAK4 incubated for 20 mins prior to MgCl2 addition measured after 90 mins by mobility shift assay
T1 sequence (Q9NWZ3 whole entry): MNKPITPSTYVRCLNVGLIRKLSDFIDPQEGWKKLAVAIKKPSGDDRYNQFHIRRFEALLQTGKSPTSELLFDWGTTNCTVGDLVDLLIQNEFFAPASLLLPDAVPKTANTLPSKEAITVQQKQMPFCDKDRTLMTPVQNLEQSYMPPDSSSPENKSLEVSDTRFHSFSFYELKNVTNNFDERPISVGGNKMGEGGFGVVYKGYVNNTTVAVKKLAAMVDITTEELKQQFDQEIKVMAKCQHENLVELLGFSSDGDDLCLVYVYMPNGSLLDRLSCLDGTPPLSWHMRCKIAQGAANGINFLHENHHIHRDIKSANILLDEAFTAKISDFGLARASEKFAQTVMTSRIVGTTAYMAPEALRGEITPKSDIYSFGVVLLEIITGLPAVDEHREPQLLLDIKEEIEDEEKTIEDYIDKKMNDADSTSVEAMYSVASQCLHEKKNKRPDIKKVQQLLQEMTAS

[6] = target: Bifunctional protein GlmU (Escherichia coli, UniProt C3SLB7); test: Inhibition of Escherichia coli ATCC 27325 GlmU expressed in Escherichia coli HMS174(DE3) incubated for 15 mins prior to MgCl2 addition measured after 30 mins by malachite green staining-based assay
[7] = target: T2, Tyrosine-protein kinase JAK3 (Homo sapiens, UniProt P52333); test: Inhibition of human JAK3 incubated for 20 mins prior to MgCl2 addition measured after 90 mins by mobility shift assay
T2 sequence (P52333 whole entry): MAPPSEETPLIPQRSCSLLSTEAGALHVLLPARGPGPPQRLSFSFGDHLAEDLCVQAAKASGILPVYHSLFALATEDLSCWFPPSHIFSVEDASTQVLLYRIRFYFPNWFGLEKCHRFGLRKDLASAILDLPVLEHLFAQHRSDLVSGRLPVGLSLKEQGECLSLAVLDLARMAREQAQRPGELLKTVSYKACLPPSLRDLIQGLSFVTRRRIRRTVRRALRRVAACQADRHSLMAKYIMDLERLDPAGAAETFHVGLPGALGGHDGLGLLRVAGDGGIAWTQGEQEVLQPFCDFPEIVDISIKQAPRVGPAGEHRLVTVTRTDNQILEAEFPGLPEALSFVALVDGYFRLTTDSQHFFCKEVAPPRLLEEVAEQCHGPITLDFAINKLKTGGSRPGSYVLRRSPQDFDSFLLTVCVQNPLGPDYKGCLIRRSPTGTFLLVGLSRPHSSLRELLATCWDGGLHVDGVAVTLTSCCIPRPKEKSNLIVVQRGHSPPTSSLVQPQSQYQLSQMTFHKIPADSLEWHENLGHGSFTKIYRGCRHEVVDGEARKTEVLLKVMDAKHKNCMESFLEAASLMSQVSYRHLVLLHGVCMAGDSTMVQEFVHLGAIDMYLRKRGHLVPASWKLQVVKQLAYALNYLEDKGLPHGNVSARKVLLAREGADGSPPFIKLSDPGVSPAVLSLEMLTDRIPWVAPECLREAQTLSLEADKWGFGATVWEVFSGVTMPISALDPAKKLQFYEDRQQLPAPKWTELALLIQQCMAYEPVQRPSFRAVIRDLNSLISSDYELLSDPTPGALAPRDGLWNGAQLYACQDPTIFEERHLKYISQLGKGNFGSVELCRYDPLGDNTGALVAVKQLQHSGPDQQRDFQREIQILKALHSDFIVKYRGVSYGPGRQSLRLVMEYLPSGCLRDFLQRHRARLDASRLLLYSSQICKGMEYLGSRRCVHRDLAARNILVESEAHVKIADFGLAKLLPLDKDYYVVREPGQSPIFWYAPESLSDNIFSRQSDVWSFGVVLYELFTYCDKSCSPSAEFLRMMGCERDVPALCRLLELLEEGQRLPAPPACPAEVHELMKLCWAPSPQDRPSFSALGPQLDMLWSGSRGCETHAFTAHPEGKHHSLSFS

[8] = target: Cyclin-dependent kinase 2 (Homo sapiens, UniProt P24941); test: Inhibition of human CDK2 incubated for 20 mins prior to MgCl2 addition measured after 90 mins by mobility shift assay
[9] = tested on: Moraxella catarrhalis; test: Antibacterial activity against Moraxella catarrhalis after 18 to 24 hrs by agar dilution method; assay type: functional, organism-based
[10] = target: Cyclin-dependent kinase 9 (Homo sapiens, UniProt P50750); test: Inhibition of human CDK9 incubated for 20 mins prior to MgCl2 addition measured after 90 mins by mobility shift assay
[11] = target: Aurora kinase B (Homo sapiens, UniProt Q96GD4); test: Inhibition of human AURKB incubated for 20 mins prior to MgCl2 addition measured after 90 mins by mobility shift assay
[12] = Inhibition of Haemophilus influenzae ATCC 51907 GlmU expressed in Escherichia coli BL21(DE3) incubated for 15 mins prior to MgCl2 addition measured after 30 mins by malachite green staining-based assay
[13] = Serum protein binding in human at 10 uM after 30 mins by ultrafiltration method; assay type: ADME; details: read-out: PB (converted)
[14] = tested on: Streptococcus pneumoniae; test: Antibacterial activity against Streptococcus pneumoniae after 18 to 24 hrs by agar dilution method; assay type: functional, organism-based
[15] = tested on: Haemophilus influenzae; test: Antibacterial activity against Haemophilus influenzae after 18 to 24 hrs by agar dilution method; assay type: functional, organism-based
[16] = tested on: Streptococcus pyogenes; test: Antibacterial activity against Streptococcus pyogenes after 18 to 24 hrs by agar dilution method; assay type: functional, organism-based

Chain of Tyrosine-protein kinase JAK2 (O60674 whole entry): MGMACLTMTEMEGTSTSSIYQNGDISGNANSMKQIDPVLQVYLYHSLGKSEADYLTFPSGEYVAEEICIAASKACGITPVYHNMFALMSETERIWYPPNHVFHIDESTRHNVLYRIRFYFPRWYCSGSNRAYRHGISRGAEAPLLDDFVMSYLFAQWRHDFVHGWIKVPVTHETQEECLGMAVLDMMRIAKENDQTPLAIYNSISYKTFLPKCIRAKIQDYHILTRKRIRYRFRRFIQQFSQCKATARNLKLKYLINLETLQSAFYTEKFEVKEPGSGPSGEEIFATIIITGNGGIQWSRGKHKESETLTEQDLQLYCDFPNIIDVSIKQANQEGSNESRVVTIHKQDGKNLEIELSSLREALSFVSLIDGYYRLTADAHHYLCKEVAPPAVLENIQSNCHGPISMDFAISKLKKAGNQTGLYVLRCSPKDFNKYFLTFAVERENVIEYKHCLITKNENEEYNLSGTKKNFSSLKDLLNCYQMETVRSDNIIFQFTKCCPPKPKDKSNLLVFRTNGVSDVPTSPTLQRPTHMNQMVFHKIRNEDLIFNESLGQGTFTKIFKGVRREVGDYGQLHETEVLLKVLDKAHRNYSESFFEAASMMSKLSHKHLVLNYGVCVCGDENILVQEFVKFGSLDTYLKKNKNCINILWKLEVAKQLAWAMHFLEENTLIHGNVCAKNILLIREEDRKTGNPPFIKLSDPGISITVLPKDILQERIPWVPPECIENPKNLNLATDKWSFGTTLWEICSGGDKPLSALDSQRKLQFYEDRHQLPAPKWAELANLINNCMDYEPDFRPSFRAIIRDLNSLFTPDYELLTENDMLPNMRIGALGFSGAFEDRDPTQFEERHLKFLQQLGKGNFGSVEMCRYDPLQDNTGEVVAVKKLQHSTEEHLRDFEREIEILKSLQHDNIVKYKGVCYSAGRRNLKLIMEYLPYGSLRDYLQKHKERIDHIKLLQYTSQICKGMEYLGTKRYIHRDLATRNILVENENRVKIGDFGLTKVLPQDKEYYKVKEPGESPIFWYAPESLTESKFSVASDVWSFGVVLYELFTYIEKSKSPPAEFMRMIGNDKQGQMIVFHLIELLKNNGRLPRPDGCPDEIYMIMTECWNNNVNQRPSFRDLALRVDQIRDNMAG
Chain of Interleukin-1 receptor-associated kinase 1 (P51617 whole entry): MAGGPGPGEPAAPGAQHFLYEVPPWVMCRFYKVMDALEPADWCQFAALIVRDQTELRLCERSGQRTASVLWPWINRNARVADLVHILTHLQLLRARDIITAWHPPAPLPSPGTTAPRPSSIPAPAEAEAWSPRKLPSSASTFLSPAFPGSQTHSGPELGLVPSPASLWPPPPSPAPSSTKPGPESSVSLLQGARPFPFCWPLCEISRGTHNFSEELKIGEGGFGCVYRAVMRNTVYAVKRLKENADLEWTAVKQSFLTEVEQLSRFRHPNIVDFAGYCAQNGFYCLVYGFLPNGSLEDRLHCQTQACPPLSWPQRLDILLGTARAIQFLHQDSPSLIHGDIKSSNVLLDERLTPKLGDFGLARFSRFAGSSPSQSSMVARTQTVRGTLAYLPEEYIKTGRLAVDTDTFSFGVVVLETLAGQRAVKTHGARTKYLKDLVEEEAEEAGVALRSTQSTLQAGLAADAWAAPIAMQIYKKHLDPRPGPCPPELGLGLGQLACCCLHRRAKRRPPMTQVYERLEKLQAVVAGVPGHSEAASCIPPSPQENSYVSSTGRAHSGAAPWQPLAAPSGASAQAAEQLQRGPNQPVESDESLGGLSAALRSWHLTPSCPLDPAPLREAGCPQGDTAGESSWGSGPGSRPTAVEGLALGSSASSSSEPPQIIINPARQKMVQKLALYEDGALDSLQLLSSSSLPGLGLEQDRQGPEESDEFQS
Chain of Tyrosine-protein kinase JAK1 (P23458 whole entry): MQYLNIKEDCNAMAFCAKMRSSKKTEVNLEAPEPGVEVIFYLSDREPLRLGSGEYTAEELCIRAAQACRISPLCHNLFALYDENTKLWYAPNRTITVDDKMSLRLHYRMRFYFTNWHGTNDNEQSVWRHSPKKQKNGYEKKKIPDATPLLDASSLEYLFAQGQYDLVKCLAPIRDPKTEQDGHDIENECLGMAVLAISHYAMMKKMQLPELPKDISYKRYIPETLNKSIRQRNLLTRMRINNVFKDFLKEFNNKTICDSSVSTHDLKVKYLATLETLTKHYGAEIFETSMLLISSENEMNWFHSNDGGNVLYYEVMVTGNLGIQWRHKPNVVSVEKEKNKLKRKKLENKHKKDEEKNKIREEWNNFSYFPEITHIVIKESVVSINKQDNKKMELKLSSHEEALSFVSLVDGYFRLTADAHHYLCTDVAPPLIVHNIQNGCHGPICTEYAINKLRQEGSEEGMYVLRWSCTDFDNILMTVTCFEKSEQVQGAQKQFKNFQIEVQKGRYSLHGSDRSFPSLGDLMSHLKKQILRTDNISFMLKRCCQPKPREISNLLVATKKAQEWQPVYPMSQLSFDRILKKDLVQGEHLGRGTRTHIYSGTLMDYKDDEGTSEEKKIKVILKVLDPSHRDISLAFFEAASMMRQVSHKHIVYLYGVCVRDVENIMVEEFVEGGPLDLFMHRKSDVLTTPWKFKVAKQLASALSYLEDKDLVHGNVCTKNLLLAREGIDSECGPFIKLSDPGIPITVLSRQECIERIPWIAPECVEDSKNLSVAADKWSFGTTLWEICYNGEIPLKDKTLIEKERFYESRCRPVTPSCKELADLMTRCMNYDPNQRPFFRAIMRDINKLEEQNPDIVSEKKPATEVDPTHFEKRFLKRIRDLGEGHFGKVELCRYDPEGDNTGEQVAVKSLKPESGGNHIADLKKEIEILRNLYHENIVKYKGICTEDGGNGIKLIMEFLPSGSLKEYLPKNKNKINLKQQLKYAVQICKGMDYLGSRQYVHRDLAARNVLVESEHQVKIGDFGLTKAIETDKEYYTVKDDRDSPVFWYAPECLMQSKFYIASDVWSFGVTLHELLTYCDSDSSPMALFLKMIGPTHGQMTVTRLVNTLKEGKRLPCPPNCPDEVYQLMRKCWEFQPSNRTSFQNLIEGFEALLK
Chain of Cyclin-dependent kinase 1 (P06493 whole entry): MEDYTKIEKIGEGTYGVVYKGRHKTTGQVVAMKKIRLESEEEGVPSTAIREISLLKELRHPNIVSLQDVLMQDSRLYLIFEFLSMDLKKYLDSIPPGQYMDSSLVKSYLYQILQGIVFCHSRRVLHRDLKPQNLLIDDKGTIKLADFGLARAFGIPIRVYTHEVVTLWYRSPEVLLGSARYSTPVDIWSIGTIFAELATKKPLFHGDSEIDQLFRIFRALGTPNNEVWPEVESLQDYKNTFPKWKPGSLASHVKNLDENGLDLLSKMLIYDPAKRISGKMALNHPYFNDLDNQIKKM
Chain of Cyclin-dependent kinase 9 (P50750 whole entry): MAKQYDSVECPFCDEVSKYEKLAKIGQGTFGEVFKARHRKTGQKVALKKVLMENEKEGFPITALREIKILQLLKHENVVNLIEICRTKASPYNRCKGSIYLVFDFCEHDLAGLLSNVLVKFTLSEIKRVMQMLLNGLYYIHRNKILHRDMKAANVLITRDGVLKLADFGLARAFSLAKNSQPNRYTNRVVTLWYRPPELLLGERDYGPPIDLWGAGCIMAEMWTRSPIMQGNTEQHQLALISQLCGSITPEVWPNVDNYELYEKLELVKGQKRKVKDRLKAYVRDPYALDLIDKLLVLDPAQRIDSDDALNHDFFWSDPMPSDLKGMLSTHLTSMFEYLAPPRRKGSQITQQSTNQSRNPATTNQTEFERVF
Chain of Bifunctional protein GlmU (C3SLB7 whole entry): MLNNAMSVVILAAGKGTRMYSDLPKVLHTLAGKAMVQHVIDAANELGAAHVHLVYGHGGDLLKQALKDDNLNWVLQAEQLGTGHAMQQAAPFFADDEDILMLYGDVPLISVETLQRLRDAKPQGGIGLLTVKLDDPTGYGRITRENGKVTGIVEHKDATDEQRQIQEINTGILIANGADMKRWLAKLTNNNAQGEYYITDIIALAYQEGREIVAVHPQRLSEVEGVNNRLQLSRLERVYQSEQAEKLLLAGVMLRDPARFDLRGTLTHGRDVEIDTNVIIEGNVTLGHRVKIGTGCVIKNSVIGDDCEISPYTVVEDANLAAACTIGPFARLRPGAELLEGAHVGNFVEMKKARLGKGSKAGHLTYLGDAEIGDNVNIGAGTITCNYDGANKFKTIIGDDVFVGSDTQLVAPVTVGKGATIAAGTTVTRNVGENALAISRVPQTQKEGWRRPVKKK
Chain of Aurora kinase B (Q96GD4 whole entry): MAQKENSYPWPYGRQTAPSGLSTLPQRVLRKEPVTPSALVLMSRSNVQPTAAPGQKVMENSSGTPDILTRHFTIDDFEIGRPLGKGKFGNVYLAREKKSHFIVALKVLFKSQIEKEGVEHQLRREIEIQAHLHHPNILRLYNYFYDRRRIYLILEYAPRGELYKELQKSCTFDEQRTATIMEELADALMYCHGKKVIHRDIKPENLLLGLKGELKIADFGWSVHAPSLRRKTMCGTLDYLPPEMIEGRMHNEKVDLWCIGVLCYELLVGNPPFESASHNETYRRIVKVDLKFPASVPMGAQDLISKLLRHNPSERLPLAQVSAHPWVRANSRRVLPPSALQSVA

Structure (SMILES) | pIC50 [1] | pIC50 [2] | pIC50 [3] | pIC50 [4] | pIC50 [5] | pIC50 [6] | pIC50 [7] | pIC50 [8] | pIC50 [10] | pIC50 [11] | pIC50 [12] | fraction unbound at 0.5 h, 10 µM [13] | Activity [9] | Activity [14] | Activity [15] | Activity [16]
COc1cc2c(Nc3ccc(NC(=O)c4ccccc4)cc3)nc(N)nc2cc1O | < 4.52 | < 4.52 | < 4.52 | < 4.52 | < 4.52 | 4.98 | < 4.52 | < 4.52 | < 4.52 | < 4.52 | 5.77 | 0.023 | – | – | – | –
COc1cc(C(=O)Nc2ccc(NC(=O)c3ccccn3)cc2)ccc1O | < 4.52 | < 4.52 | < 4.52 | < 4.52 | < 4.52 | 5.09 | < 4.52 | < 4.52 | < 4.52 | 5.23 | 6.29 | 0.016 | – | – | – | –

Now from value to compound, other results behind:

pIC50 [1] | pIC50 [2] | pIC50 [3] | pIC50 [4] | pIC50 [5] | pIC50 [6] | pIC50 [7] | pIC50 [8] | pIC50 [10] | pIC50 [11] | pIC50 [12] | fraction unbound at 0.5 h, 10 µM [13] | Structure (SMILES) | Activity [9] | Activity [14] | Activity [15] | Activity [16]
< 4.52 | < 4.52 | < 4.52 | < 4.52 | < 4.52 | 6.92 | < 4.52 | < 4.52 | < 4.52 | < 4.52 | 7.30 | 0.395 | COc1cc(C(=O)Nc2ccc(NC(=O)C3CCCCN3)cc2)cc(-c2c[nH]c(=O)[nH]c2=O)c1 (stereo not drawn) | inactive | inactive | inactive | inactive
< 4.52 | < 4.52 | < 4.52 | < 4.52 | < 4.52 | 6.01 | < 4.52 | < 4.52 | < 4.52 | 4.74 | 7.11 | 0.159 | CCNC(=O)Nc1ccc(NC(=O)c2cc(OC)cc(-c3c[nH]c(=O)[nH]c3=O)c2)cc1 | inactive | inactive | inactive | inactive
< 4.52 | < 4.52 | < 4.52 | < 4.52 | < 4.52 | 5.23 | < 4.52 | < 4.52 | < 4.52 | < 4.52 | 5.21 | 0.011 | COc1cc(C(=O)Nc2ccc(NC(=O)c3ccccc3)cc2)c(N)cc1O | – | – | – | –
